pIC50: −log10 of the molar value. Read-outs that look alike come from different tables or passages of the source.
Experiments:
[1] = target: T1, T7 DNA polymerase Y526F (Escherichia phage T7, UniProt P00581, DEL118-145/Y526F); assay: Inhibition of DNA synthesis on synthetic Primer-Template A, competition of dATP and ddATP (Example 9); format: biochemical, bacteriophage T7; settings: in the presence of 10 µM dATP, 37°C, read-out: [ddATP] for 50% inhibition
T1 construct: made in house; host or cells: strain that produces E. coli thioredoxin (lac promoter)
Description: (§1) In this example the competition between a dNTP and a ddNTP is assayed for use at a single site in a synthetic primer-template. This assay differs from the others in that it limits the comparison of the use of the two substrates to a single site, avoiding the complication of sequence-specific variability in discrimination. […]
(§2) Each reaction mixture contains 25 pmoles each of primer and template. […] The mixtures are incubated at 37°C for 1 min (70°C for thermophilic DNA polymerases), and the reactions are initiated by the addition of 5 µl aliquots (0.01 to 1 unit) of the DNA polymerase being analyzed diluted in 20 mM TrisHCl, pH 7.5, 10 mM 2-mercaptoethanol and 0.05% bovine serum albumin. […] The disks are then dried under a heat lamp and counted in a scintillation counter in 5 ml of fluor (Opti-Fluor O, Packard). From the amount of radioactivity on each disk, the amount […] incorporated was determined. […]
(§3) All reactions are carried out with a constant amount of the DNA polymerase being analyzed; the amount of DNA polymerase should be sufficient to replicate 50% of the total dCMP residues in the single-stranded region of the template in the 10 min incubation in the presence of 10 µM dATP and the absence of ddATP. […]

[2] = target: T2, T7 DNA polymerase (28 amino acid deletion in the exonuclease domain, complexed with thioredoxin) (Escherichia phage T7, UniProt P00581, DEL118-145); assay: as above; format: biochemical, bacteriophage T7; settings: in the presence of 10 µM dATP, 37°C, read-out: [ddATP] for 50% inhibition
T2 construct: made in house; host or cells: strain that produces E. coli thioredoxin (lac promoter)
Description: as §1, §2, §3

[3] = target: T7 DNA polymerase (Escherichia phage T7, UniProt P00581); settings: '(for ddATP)' stands at the end of the sentence, cited from earlier work
[4] = target: T3, E. coli DNA polymerase I (Klenow fragment) (Escherichia coli, UniProt P00582); settings: cited from earlier work
T3 construct: manganese reduces the discrimination of Klenow fragment against ddATP from 550 to 3.9 fold

Nc1ncnc2c1ncn2[C@H]1CC[C@@H](COP(=O)(O)OP(=O)(O)OP(=O)(O)O)O1 [ddATP]
pIC50 [1]: < 3.30 | pIC50 [2]: ~4.52 | discrimination ([3]; in the presence of manganese): 1 | discrimination ([3]; magnesium): 3.7 | discrimination against ddATP ([4]; in the presence of manganese): 3.9 fold | discrimination against ddATP ([4]; magnesium): 550 fold
